According to US20090036474A1, “Quinazoline derivatives for use against cancer” (priority 2004, published 2009):

Biological target: T1, phospho-Tyr751 PDGFRβ (Homo sapiens, UniProt P09619)
T1 construct: phosphorylation of PDGFR expressed on MG63 osteosarcoma cells; endogenous in cells; host or cells: MG63 osteosarcoma cells
Experiment: In vitro phospho-Tyr751 PDGFRβ ELISA assay in MG63 osteosarcoma cells, Test (b)
Type: cell-based
Settings: MG63 cells stimulated with PDGFBB, read-out: IC50 versus phospho-Tyr751 PDGFRβ
Protocol: This assay uses a conventional ELISA method to determine the ability of test compounds to inhibit phosphorylation of tyrosine in PDGFRβ.
An MG63 osteosarcoma cell line [American Type Culture Collection (ATCC) CCL 1427] was routinely maintained at 37° C. with 7.5% CO2 in Dulbecco's modified Eagle's growth medium (DMEM; Sigma-Aldrich; Catalogue No. D6546) containing 10% foetal calf serum (FCS; Sigma-Aldrich; Catalogue No. F7524) and 2 mM L-glutamine (Invitrogen Ltd., Paisley, UK; Catalogue No. 25030-024).
For the assay, the cells were detached from the culture flask using a trypsin/ethylenediaminetetraacetic acid (EDTA) mixture (Invitrogen Ltd.; Catalogue No. 15400-054) and resuspended in test media comprising DMEM without phenol red (Sigma-1-Aldrich; Catalogue No. D5921) containing 1% charcoal-stripped-foetal calf serum (FCS) (Sigma-Aldrich; Catalogue No. F7524, stripped by incubation with dextran-coated activated charcoal at 55° C. for 30 minutes with continuous stirring followed by removal of the charcoal by centrifugation and filter sterilisation) and 2 mM L-glutamine (Invitrogen Ltd., Catalogue No. 25030-024) to give 6×10^4 cells per ml. […]

T1 sequence (P09619 33-1106): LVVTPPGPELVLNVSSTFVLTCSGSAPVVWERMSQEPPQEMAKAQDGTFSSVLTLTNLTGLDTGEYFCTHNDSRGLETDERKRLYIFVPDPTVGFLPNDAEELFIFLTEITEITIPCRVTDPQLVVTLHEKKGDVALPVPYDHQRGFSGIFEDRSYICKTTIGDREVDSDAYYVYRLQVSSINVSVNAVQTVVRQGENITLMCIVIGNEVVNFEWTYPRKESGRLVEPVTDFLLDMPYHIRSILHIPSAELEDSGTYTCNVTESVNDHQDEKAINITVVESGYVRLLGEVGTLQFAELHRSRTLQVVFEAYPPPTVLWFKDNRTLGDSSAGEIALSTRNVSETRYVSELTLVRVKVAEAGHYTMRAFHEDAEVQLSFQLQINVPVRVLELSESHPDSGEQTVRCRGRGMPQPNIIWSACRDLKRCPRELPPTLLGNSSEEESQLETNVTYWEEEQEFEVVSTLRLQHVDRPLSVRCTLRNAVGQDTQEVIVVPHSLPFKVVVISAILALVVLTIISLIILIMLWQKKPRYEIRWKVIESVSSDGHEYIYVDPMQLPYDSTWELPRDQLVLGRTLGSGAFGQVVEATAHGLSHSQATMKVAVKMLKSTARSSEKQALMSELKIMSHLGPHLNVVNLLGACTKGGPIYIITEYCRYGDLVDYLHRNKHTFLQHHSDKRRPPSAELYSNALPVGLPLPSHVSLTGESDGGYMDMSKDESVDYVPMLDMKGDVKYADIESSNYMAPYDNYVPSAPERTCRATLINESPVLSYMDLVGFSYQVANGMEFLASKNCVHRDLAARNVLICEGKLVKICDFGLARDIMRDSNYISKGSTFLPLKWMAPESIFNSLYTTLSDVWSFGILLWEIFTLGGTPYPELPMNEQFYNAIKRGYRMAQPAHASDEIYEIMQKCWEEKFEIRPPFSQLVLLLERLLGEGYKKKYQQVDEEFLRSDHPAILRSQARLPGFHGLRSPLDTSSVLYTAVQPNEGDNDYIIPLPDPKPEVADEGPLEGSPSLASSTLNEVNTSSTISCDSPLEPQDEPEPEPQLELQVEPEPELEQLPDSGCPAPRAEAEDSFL

IC50: ~3 nM
Compound: COc1cc2ncnc(Oc3cnn(CC(=O)Nc4cccc5c4OCO5)c3)c2cc1OC [Example 2, N-(2,3-methylenedioxyphenyl)-2-[4-(6,7-dimethoxyquinazolin-4-yloxy)pyrazol-1-yl]acetamide]
